In patent US8592344B2, “Pesticidal compositions comprising 4,5-dihydroxyindan-1-one” (Yissum Research Development Company of The Hebrew …, priority 2009, dated 2013):

Key:
[1] = system: citrus rust mite, Phyllocoptruta oleivora; experiment: whole plant or invertebrate; type: in vivo; details: recorded 24 h later
Experimental: The CRM population was obtained from Mineola Tangelo (C. paradisi×C. reticulata) fruits at the Tzrifin farm, on the coastal plain of Israel. No acaricides are being used at this farm, making the location a suitable place for our purposes. In the laboratory the pest was reared on young seedlings (6-8 weeks old) of sour orange (Citrus aurantium).
In order to determine the CRM dose response to the toxin, 0.01, 0.02, 0.05, 0.1, 0.2 and 0.4 mg/ml of RPLC-cleaned toxin, dissolved in a two ml volume of ddH2O, was sprayed on the CRM (thirty CRMs/leaf, in four replicates). The infested seedlings were incubated at 25° C., (12L: 12D). Mite mortality rates were recorded 24 h later.

[2] = system: Agrobacterium tumefaciens (strain ID1); experiment: Antibacterial activity, inhibition haloes of chromatographed fractions; type: cell-based; details: RPLC fraction in 10 μl methanol, 24 hours, 28° C.
Experimental: The bacterium was grown overnight in glass tubes containing a 5 ml Lennox Broth (LB, Difco). Fifty μl overnight-grown bacterial suspensions were added to 5 ml of LB containing 0.6% agar, and placed into Petri dishes (55 mm diameter). Each of the eluted chromatographed fractions was dried using a rotor evaporator, dissolved in 10 μl of methanol, pipetted into the Petri dishes and incubated at 28° C. Each dish was checked for inhibition haloes 24 hours later; 10 μl methanol alone was used as a control. This procedure was repeated four times to confirm of the toxicity of the fractions. The RPLC-cleaned fraction that was antagonistic to A. tumefaciens was concurrently assayed against the citrus rust mite (describe below).

O=C1CCc2c1ccc(O)c2O [argovin, 4,5-dihydroxyindan-1-one]
mortality at 10 µg/mL ([1]; 0.01 mg/ml sprayed, control 6%): 39% | mortality at 200 µg/mL ([1]; 0.2 mg/ml sprayed): 100% | activity against A. tumefaciens (inhibition halo) [2]: active
